From article PMC10725471, “Chemical modulation of cytosolic BAX homodimer potentiates BAX activation and apoptosis” (Nature Communications, 2023) come the findings set out here.

In experiment [1] the test system is HCT116 BAX WT, HCT116 BAX P168G and HCT116 BAX E75K cells. Briefly: Caspase 3/7 activation assay. The class given is cell-based, human. Conditions: all HCT116 BAX cell lines, titration, 6 hrs.
In experiment [2] the test system is HCT116 BAX E75K cells (HCT116 BAX KO reconstituted with BAX E75K, cytosolic monomer). Briefly: Cell viability (CellTiter-Glo) assay. The class given is cell-based. Conditions: Homo sapiens, HCT-116, after 24 h.
Experiment [3] relates to HCT116 BAX WT cells (HCT116 BAX KO reconstituted with BAX WT, cytosolic dimer). The experiment is described as follows: Cell viability (CellTiter-Glo) assay. The class given is cell-based. Conditions: Homo sapiens, HCT-116, 24 h.
The next experiment relates to HCT116 BAX P168G cells. The experiment is described as follows: Caspase 3/7 activation assay. The class given is cell-based, human.
Experiment [4] has as its system CALU-6 CRISPR/Cas9 BAX KO cells. The experiment is described as follows: Caspase 3/7 activation assay. The class given is cell-based, human. Conditions: CALU-6 BAX KO, 8 hrs.
The test system of experiment [5] is HCT116 BAX P168G cells (HCT116 BAX KO reconstituted with BAX P168G, cytosolic dimer). The experiment is described as follows: Cell viability (CellTiter-Glo) assay. Conditions: up to highest concentration of 2 μM, 24 h. In general terms: Cellular ATP, detected with luciferase, serves as a proxy for viable cell number.
The next experiment has as its target T1, BAX in CALU-6 cells (Homo sapiens, UniProt Q07812).
T1 construct: endogenous in cells; host or cells: CALU-6
Briefly: Active BAX immunoprecipitation with 6A7 antibody (BAX conformational change assay). The format is cell-based. Conditions: 20 µM, 2 hrs. Here is the method: Cells were harvested and lysed with a 1% CHAPS lysis buffer (150 mM NaCl, 10 mM HEPES, pH 7.4, 1% CHAPS) supplemented with Halt protease inhibitor cocktail (Thermofisher Cat. 1861279). Whole-cell lysates were subjected to immunoprecipitation followed by immunoblotting against total BAX. Briefly, 500–1000 μg total protein in 600 µl was collected and incubated with 12 µl (50% slurry) of pre-equilibrated protein G agarose beads (Santa Cruz Biotechnology) for 30 min at 4 °C on a rotator. The precleared samples were then incubated with 5 µl of 6A7 antibody (Santa Cruz Biotechnology Cat. 23959) overnight at 4 °C. The next day, 20 µl (50% slurry) of pre-equilibrated G agarose beads (Santa Cruz Biotechnology) were added to the samples and incubated for 2 h at 4 °C. The beads were pelleted, washed with the lysis buffer 3 times, and protein eluted by heating the beads at 90 °C for 15 minutes in 1X LDS/DTT loading buffer. The immunoprecipitates were subjected to electrophoresis on 4–12% NuPage gels (Life Technologies). For visualization of proteins using Odyssey Infrared Imaging System (LI-COR Biosciences), membranes were blocked in PBS containing 5% milk powder for 1 hour at room temperature. Primary antibodies were incubated overnight at 4 °C. After washing, membranes were incubated with an IRdye800-conjugated goat anti-rabbit IgG (1:10, 000) or IRDye800- conjugated goat anti-mouse IgG (1:20,000 dilution) secondary antibodies (LI-COR Biosciences). Antibodies were used to detect the following proteins on membrane: BAX (Cell Signaling Cat. 2772) and β-Actin (Sigma Cat. A1978) or β-tubulin (Cell Signaling Cat. 2146).

In the next experiment the test system is SUDHL-5 cells. Briefly: Cell viability (CellTiter-Glo) assay. The class given is cell-based. Conditions: Homo sapiens, SU-DHL-5; SUDHL-5, 72 hrs.
Experiment [6] deals with cytosolic BAX (endogenous, human cell lines) (human (endogenous in human cell lines)) (UniProt Q07812). Briefly: SEC; cytosolic fraction (2.5 mg, lysis without detergent) on Superdex 200 10/300 GL in IBc buffer (10 mM Tris HCl, 1 mM EGTA, 200 mM sucrose, pH 7.5), 4 °C; fractions blotted for BAX; cell lines with BAX centered at 14–14.5 ml (CALU-6, HCT-116, Namalwa, BEAS-2B, IMR90 and other lines of the panel). For orientation: Size exclusion chromatography separates by hydrodynamic size, large species first.

The target in experiment [7] is human BAX WT in HCT116 BAX KO cells (human) (UniProt Q07812). The experiment is described as follows: SEC; cytosolic fraction of HCT116 BAX KO cells reconstituted with BAX WT, P168G or E75K, untreated; Superdex 200 10/300 GL in IBc buffer, 4 °C; fractions blotted for BAX.
Experiment [8] has as its target FITC-BIM SAHB, hydrocarbon-stapled peptide corresponding to the BH3 domain of BIM. Briefly: fluorescence polarisation; direct binding: FITC-BIM SAHB (25 nM) with serial dilutions of full-length BAX; 10-minute time-point. (In general: Fluorescence polarisation rises when a labelled molecule tumbles more slowly, as on binding a larger partner.)

Where a name gives a salt, the structure may show the parent alone.

T1 sequence (Q07812 whole entry): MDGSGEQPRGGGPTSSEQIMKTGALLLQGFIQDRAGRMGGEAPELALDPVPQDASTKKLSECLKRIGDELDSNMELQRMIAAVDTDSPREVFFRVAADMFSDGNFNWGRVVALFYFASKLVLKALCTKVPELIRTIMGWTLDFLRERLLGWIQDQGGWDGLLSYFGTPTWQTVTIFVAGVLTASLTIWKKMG
Sequence of recombinant human full-length (aa1–192) wild-type BAX (Q07812 whole entry, the tested form may be a part): as the sequence (Q07812 whole entry) above

As for `CC1(C)CCC(CN2CCN(c3ccc(C(=O)NS(=O)(=O)c4ccc(NCC5CCOCC5)c([N+](=O)[O-])c4)c(Oc4cnc5[nH]ccc5c4)c3)CC2)=C(c2ccc(Cl)cc2)C1` [ABT-199, Venetoclax], in experiment [1], the “caspase-3/7 activity (result in words)” value was “failed to induce caspase-3/7 activity”.

A word on the IC50: it is the concentration needed to halve the response being measured. A high value points to lower potency. As to `CC1(C)CCC(c2ccc(Cl)cc2)=C(CN2CCN(c3ccc(C(=O)NS(=O)(=O)c4ccc(N[C@H](CCN5CCOCC5)CSc5ccccc5)c(S(=O)(=O)C(F)(F)F)c4)cc3)CC2)C1` [ABT-263, Navitoclax], the 50% inhibitory concentration (IC50) in experiment [2] was 45 nM; in experiment [3] it was 191 nM. Also, in the experiment on HCT116 BAX P168G cells (titration, 6 hrs), the “caspase-3/7 activity (result in words)” value is “did not show caspase-3/7 activity”. In [4], the “caspase-3/7 activation (result in words)” value is “no caspase-3/7 activation was observed”. Further, the “cell viability (result in words)” value in [5] is “did not show decreased viability”. Regarding `O=C(O)c1ccc(-n2c(/C=C/C3CCCC3)nc3ccc(I)cc3c2=O)cc1` [BDM19.2], at BAX in CALU-6 cells, the “6A7 epitope exposure and activation of BAX (result in words)” value was “none of the analogs”. For `O=C(O)c1ccc(-n2c(/C=C/C3CC3)nc3ccc(I)cc3c2=O)cc1` [BDM19.3], the “6A7 epitope exposure and activation of BAX (result in words)” value on BAX in CALU-6 cells is recorded as “none of the analogs”. Still for that read-out and setting: as for `Cc1cccc(/C=C/c2nc3c(c(=O)n2-c2ccc(C(=O)O)cc2)CCCC3)c1` [BDM19.4], the entry is “none of the analogs”.

In the experiment with SUDHL-5 cells, `Cc1cccc(/C=C/c2nc3ccc(I)cc3c(=O)n2-c2ccc(C(=O)O)cc2)c1` [BDM19] registered a half-maximal inhibitory concentration (IC50) of 1360 nM. Also, the “caspase-3/7 activation (result in words)” value in experiment [4] was “no caspase-3/7 activation was observed”. For the compound `COc1cccc2c1C(=O)c1c(O)c3c(c(O)c1C2=O)C[C@@](O)(C(=O)CO)C[C@@H]3O[C@H]1C[C@H](N)[C@H](O)[C@H](C)O1` [doxorubicin, Doxorubicin hydrochloride], the “caspase-3/7 activation (result in words)” value in the experiment on HCT116 BAX P168G cells (various concentrations, 24 hrs) was “not responsive”. For orientation: stoichiometry N means the number of molecules, sites or subunits per partner or assembly. With “cytosolic BAX (endogenous, human cell lines) (from UniProt Q07812 1-192) (natural protein)”, the stoichiometry N in experiment [6] stood at 2. “human BAX WT in HCT116 BAX KO cells (from UniProt Q07812 1-192) (natural protein)” showed a stoichiometry N in [7] of 2. The term EC75 denotes the concentration needed for an effect of 75%. In [8], “recombinant human full-length (aa1–192) wild-type BAX (from UniProt Q07812 1-192) (natural protein)” had an EC75 of 125 nM.
